Laboratory results taken from patent US11965159B2, “Compositions and methods for regulating proteins and nucleic acids activities” (THE BROAD INSTITUTE, INC., priority 2019, dated 2024).

Columns and labels:
dCas9 = assay: dCas9-based transcriptional activation of HBG1 gene in HEK293FT cells (RT-qPCR); type: cell-based; conditions: for inhibition of the HBG1 transcriptional activation: 48 hours
Experimental: Transcription activation experiments and quantitative RT-PCR analyses. For transcription activation experiments 250,000 cells/well were plated in a 12 well plate. The cells were transiently transfected with a 1:1:1 mass ratio of the dCas9 plasmid, MS2-P65-HSF1 effector plasmid and the sgRNA plasmid targeting the HBG1 gene or an RFP control plasmid. A total of 1.6 μg plasmid DNA was transfected using Lipofectamine™ 2000 (Life Technologies™) according to manufacturer's protocol. Immediately after transfection, the cells were treated with an appropriate dose of the small molecule inhibitors for 48 hours following which the cells were harvested and RNA was extracted using the EZNA® Total RNA kit I (OMEGA) as per manufacturer's instructions. 1 μg total cellular RNA was used to perform reverse transcription using the High-Capacity cDNA Reverse Transcription Kit (Applied Biosystems™) or the qScript® cDNA Synthesis Kit (QUANTABIO). qPCR reactions were performed to quantify RNA expression using the TaqMan™ probes (Life Technologies™ HBG1/HBG2: Hs00361131_g1 and ACTB: Hs01060665_g1) and TaqMan™ Fast Advanced Master Mix (Life Technologies™) in 5 μL multiplexed reactions and 384-well format using the LightCycler® 480 Instrument II (ROCHE). For each sample, six technical replicates were performed. Data were analyzed using the LightCycler® 480 software (ROCHE) by the ΔΔCt method: Ct values for the gene of interest (HBG1) were normalized to Ct values for the housekeeping gene (ACTB) and fold-changes in the expression level of the gene of interest were normalized to RFP-transfected control. The data are reported as mean S.E.M. for technical replicates.
For transcription activation experiments 250,000 cells/well were plated in a 12 well plate. […] Data were analyzed using the LightCycler® 480 software (ROCHE) by the ΔΔCt method: Ct values for the gene of interest (HBG1) were normalized to Ct values for the housekeeping gene (ACTB) and fold-changes in the expression level of the gene of interest were normalized to RFP-transfected control. […]

SpCas9 = SpCas9 (Streptococcus pyogenes serotype M1, UniProt Q99ZW2); assay: mKate2 expression (knockdown/disruption) assay; type: cell-based; conditions: read-out: inhibition activity in mKate2 disruption assay
SpCas9, sequence (Q99ZW2 whole entry): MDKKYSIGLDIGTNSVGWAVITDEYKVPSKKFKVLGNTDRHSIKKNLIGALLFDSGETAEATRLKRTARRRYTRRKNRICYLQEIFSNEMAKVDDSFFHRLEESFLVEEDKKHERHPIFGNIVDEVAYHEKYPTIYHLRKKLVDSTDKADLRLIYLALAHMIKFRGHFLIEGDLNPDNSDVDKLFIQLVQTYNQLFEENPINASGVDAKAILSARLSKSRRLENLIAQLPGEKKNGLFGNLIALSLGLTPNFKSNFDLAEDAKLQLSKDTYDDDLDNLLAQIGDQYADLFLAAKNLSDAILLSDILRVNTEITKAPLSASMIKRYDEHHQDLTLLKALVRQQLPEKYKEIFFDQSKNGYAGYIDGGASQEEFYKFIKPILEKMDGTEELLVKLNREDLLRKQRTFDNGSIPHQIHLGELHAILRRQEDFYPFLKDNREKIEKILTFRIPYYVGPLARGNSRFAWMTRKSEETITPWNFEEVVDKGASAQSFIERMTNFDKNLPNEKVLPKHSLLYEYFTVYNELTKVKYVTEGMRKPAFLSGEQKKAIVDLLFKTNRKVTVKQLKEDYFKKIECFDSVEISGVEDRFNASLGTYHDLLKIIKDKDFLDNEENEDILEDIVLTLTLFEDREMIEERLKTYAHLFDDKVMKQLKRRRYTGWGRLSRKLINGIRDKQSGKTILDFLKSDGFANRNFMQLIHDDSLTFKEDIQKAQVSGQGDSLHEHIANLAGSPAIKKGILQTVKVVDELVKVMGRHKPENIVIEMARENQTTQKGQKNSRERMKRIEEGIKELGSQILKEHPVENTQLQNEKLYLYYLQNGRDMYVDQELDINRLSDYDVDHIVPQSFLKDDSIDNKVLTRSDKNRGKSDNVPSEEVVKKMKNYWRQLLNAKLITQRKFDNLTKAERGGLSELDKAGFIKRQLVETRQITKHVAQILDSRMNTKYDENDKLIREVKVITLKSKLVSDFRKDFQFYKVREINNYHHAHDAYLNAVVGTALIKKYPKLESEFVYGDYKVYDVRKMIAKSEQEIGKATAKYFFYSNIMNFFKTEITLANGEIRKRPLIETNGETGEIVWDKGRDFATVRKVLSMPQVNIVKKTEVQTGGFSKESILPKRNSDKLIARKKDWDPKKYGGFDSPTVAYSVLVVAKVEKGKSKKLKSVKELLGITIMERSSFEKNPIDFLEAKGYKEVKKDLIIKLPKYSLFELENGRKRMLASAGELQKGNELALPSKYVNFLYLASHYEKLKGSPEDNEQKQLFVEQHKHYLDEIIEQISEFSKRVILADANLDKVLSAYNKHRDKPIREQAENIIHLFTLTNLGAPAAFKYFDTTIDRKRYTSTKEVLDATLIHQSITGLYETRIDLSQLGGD
Experimental: Where σ1 and σ2 are the standard deviations of DN66 transfected wells and (DN66+DN78) transfected wells respectively. μ1 and μ2 are the mean % GFP− cell population for DN66 transfected wells and (DN66+DN78) transfected wells respectively. mKate2 expression assay. Approximately 8,000 cells/well were plated in a 96-well format 24 h before transiently transfected with 100 ng of either CgRNA (Addgene Plasmid #64955) or T1 gRNA (Addgene Plasmid #62717) plasmids using Lipofectamine™ 2000 (Life Technologies™). Transfected cells were allowed to grow in the indicated amount of compound or DMSO for 24 h. Cells were then fixed using 4% paraformaldehyde and imaged with the HCS NuclearMask™ Blue Stain (Life Technologies™) as the nuclear counter-staining agent. […] Images were analyzed in the MetaXpress® software to determine the % mKate2 positive cells and the % NHEJ was calculated following a reported protocol and plotted using GraphPad Prism 6. The Z′-value was calculated following the formula:
mKate2 expression assay. […] Images were analyzed in the MetaXpress® software to determine the % mKate2 positive cells and the % NHEJ was calculated following a reported protocol and plotted using GraphPad Prism 6. The Z′-value was calculated following the formula: […]

SMILES: COc1ccc(-c2ccc3c(c2)[C@H]2[C@H](CCN2Cc2ccncc2)[C@@H](CO)N3)cc1 [BRD5779, ((3aR,4S,9bR)-8-(4-Methoxyphenyl)-1-(pyridin-4-ylmethyl)-2,3,3a,4,5,9b-hexahydro-1H-pyrrolo[3,2-c]quinolin-4-yl)methanol]
- inhibition of the HBG1 transcriptional activation (dCas9): dose-dependent inhibition

SMILES: OC[C@H]1Nc2ccc(-c3cccc(F)c3)cc2[C@H]2[C@@H]1CCN2Cc1ccncc1 [BRD7087, ((3aR,4S,9bR)-8-(3-Fluorophenyl)-1-(pyridin-4-ylmethyl)-2,3,3a,4,5,9b-hexahydro-1H-pyrrolo[3,2-c]quinolin-4-yl)methanol]
- inhibition at 5 µM (SpCas9): 50%
- inhibition of transcriptional activation (dCas9; 10 μM): > 60%
- inhibition of the HBG1 transcriptional activation (dCas9): dose-dependent inhibition
